The structures appear in SMILES notation.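 Exposure lasted 48 hours, with cells grown in 96-well plates and compounds tested at five concentrations. Abbreviation: GI50, concentration required for 50% inhibition of growth.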 Calls of active or inactive are those of the source. Rule as the data show it: active = GI50 up to about 1.1 µM and inactive = higher. Some results are limits rather than exact numbers.

This note sets out measurements from ChEMBL document CHEMBL1201862, “PubChem BioAssay data set” (2004).

Holding throughout (experiment): growth of human tumour cells (NCI), 48 h
Experiment [1] relates to UACC-62.
For experiment [2], the system named is Malme-3M.
In experiment [3] the test system is SK-MEL-28.
Experiment [4] relates to SW-620.
Experiment [5] deals with RXF 393.
Experiment [6] relates to SNB-75.
The subject of experiment [7] is HT-29.
Experiment [8] deals with MOLT-4.
The subject of experiment [9] is A498.
The subject of experiment [10] is A549.
The subject of experiment [11] is 786-0.
The subject of experiment [12] is COLO 205.
In experiment [13] the test system is CCRF-CEM.
Experiment [14] deals with UACC-257.
For experiment [15], the system named is HCT-15.
Experiment [16] deals with SN12C.
Experiment [17] concerns SR.
The test system of experiment [18] is CAKI-1.
Experiment [19] deals with SF-539.

Take `O=C(c1nc2ccc(Cl)cc2nc1O)C(O)c1ccc2c(c1)OCO2` (stereo not drawn): the GI50 in experiment [1] was 84.5 µM (inactive); in experiment [2], > 100 µM (inactive); in [3], 78.5 µM (inactive); in experiment [4], > 100 µM (inactive); in experiment [5], > 100 µM (inactive); in experiment [6], > 100 µM (inactive). Also, the GI50 is > 100 µM (inactive) in experiment [7]; 28.4 µM (inactive) in [8]; > 100 µM (inactive) in experiment [9]; > 100 µM (inactive) in experiment [10]; > 100 µM (inactive) in experiment [11]; > 100 µM (inactive) in experiment [12]. In addition, the GI50 in experiment [13] is 4.17 µM (inactive); in experiment [14] it was > 100 µM (inactive).
In the case of `O=C(CSc1nnc(-c2ccc(/N=C\c3ccc(Cl)cc3)cc2)o1)Nc1ccc([N+](=O)[O-])cc1`, the GI50 in experiment [15] is 18.4 µM; in experiment [1] it was 18.9 µM (inactive); in [2], 92.3 µM (inactive); in experiment [3] it was 18.5 µM (inactive); in [4], 17.1 µM (inactive); in [16] it was 21.7 µM (inactive). The GI50 in experiment [5] was 19.6 µM (inactive); in experiment [6] it was 25.4 µM (inactive); in experiment [7], 19.5 µM (inactive); in experiment [8] it was 15.7 µM (inactive); in experiment [10], 39.9 µM (inactive); in experiment [11] it was 19.8 µM (inactive). In addition, the GI50 in [17] was 19 µM (inactive); in experiment [12], 35.2 µM (inactive); in experiment [13] it was 18.5 µM (inactive); in experiment [14], 21.5 µM (inactive).
With `CCC12C[N+]3([O-])CCc4c([nH]c5ccccc45)C(C(=O)OC)(c4cc5c(cc4OC)N(C)C4C(O)(C(=O)OC)C(OC(C)=O)C6(CC)C=CCN7CCC54C76)CC(C3)C1O2` (stereo not drawn), the GI50 in [15] was 4.47 µM; in experiment [1], 0.323 µM (active); in experiment [2] it was 1.61 µM (inactive); in experiment [3] it was 0.236 µM (active); in [4] it was 0.598 µM (active); in experiment [16] it was 2.33 µM (inactive). The GI50 in experiment [5] was 0.693 µM (active); in experiment [6] it was 0.242 µM (active); in experiment [18], 5.93 µM (inactive); in experiment [19], 0.28 µM (active); in experiment [7], 0.342 µM (active); in experiment [8] it was 0.406 µM (active). In addition, the GI50 is 1.55 µM (inactive) in [9]; 0.826 µM (active) in [10]; 0.461 µM (active) in experiment [11]; 0.423 µM (active) in experiment [12]; 0.401 µM (active) in [13]; 7.01 µM (inactive) in [14].
`O=C(CSc1nnc(-c2ccc(/N=C\c3ccc(Cl)cc3)cc2)o1)Nc1cccc([N+](=O)[O-])c1`: the GI50 was over 100 µM in experiment [15]; > 100 µM (inactive) in experiment [1]; > 100 µM (inactive) in experiment [2]; > 100 µM (inactive) in experiment [3]; > 100 µM (inactive) in experiment [4]; > 100 µM (inactive) in experiment [16]. For the same compound, the GI50 in experiment [5], in [6], in experiment [7], in [8], in experiment [10] and in [11] was > 100 µM (inactive) each time. For the same compound, the GI50 in experiment [17], in experiment [12], in [13] and in experiment [14] was > 100 µM (inactive) in each case.
As for `CC1(Cc2ccccc2)NC(=S)NC1=O` (stereo not drawn), the GI50 in experiment [2], in experiment [3], in experiment [4], in [16], in experiment [5] and in [6] was > 100 µM (inactive) each time. Besides, the GI50 in experiment [18], in experiment [19], in [7], in experiment [10], in [11] and in [17] was > 100 µM (inactive) each time. Also, the GI50 in [12] and in [14] was > 100 µM (inactive) each time.
Consider `Cc1cc(=O)oc2cc(OCc3nc4ccccc4c(=O)[nH]3)ccc12`, for which the GI50 in [15] is over 100 µM; in experiment [1], > 100 µM (inactive); in [2], > 100 µM (inactive); in experiment [3] it was > 100 µM (inactive); in experiment [4], > 100 µM (inactive); in experiment [16], > 100 µM (inactive). The GI50 in experiment [5], in [6], in [18], in [19], in [7] and in [8] was > 100 µM (inactive) each time. For the same compound, the GI50 in [9], in experiment [10], in experiment [11], in experiment [12] and in [13] was > 100 µM (inactive) each time.
For the compound `NCCC(=O)N[C@@H](Cc1cc(O)c(O)c(SCC(NC(=O)CC[C@H](N)C(=O)O)C(=O)NCC(=O)O)c1)C(=O)O` (stereo partly drawn), the GI50 in experiment [15] is over 50 µM; in [1], > 50 µM (inactive); in experiment [2], > 50 µM (inactive); in experiment [3], > 50 µM (inactive); in experiment [4], > 50 µM (inactive); in [16] it was > 50 µM (inactive). In addition, the GI50 in [5], in experiment [6], in experiment [18], in experiment [7], in experiment [8] and in experiment [9] was > 50 µM (inactive) in each case. For the same compound, the GI50 in [10], in experiment [11], in experiment [12] and in experiment [14] was > 50 µM (inactive) in each case.
`CCc1c(C#N)c(=O)[nH]c(=O)n1CCN1CCN(C(=O)NCCCCCCNC(=O)N2CCN(CCn3c(CC)c(C#N)c(=O)[nH]c3=O)CC2)CC1`: the GI50 in experiment [15] is over 100 µM; in experiment [1], > 100 µM (inactive); in experiment [3], > 10 µM (inactive); in experiment [4], > 100 µM (inactive); in experiment [16], > 100 µM (inactive); in experiment [6] it was > 10 µM (inactive). The GI50 in experiment [18], in experiment [19], in experiment [7], in experiment [8], in experiment [9] and in experiment [10] was > 100 µM (inactive) throughout. Moreover, the GI50 in [11], in experiment [12], in [13] and in experiment [14] was > 100 µM (inactive) each time.
As for `COc1ccccc1-c1cc(=O)c2cc(C)c(C)c(C(=O)O)c2o1`, the GI50 was over 100 µM in experiment [15]; > 100 µM (inactive) in [1]; > 100 µM (inactive) in experiment [2]; > 100 µM (inactive) in experiment [3]; > 100 µM (inactive) in [4]; > 100 µM (inactive) in experiment [16]. The GI50 in experiment [6] was 40.2 µM (inactive); in [19], > 100 µM (inactive); in [7] it was > 100 µM (inactive); in [8], > 100 µM (inactive); in [9] it was > 100 µM (inactive); in [10], > 100 µM (inactive). The GI50 in experiment [11], in experiment [12], in experiment [13] and in [14] was > 100 µM (inactive) throughout.
